Assays:
LMR20 cells = assay: Proliferation of MDV3100-resistant LMR20 cells (MTT; with R1881 or DHT); type: cell-based, human; settings: 5 days
Method in brief: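 Cells were held in phenol red-free medium with charcoal-stripped FBS and given antisense oligonucleotides plus 1 nM R1881 or 10 nM DHT from day 1. Proliferation was read by MTT after 5 days of treatment and reported as percent inhibition against non-treated cells.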

TMPRSS2 mRNA [1] = assay: TMPRSS2 mRNA levels in LMR20 cells; type: cell-based, human; settings: with or without DHT/R1881
Method: LMR20 cells were plated at 1,500 cells per well in phenol red-free medium with CSS.

22RV1 cells = assay: 22RV1 cell proliferation, ASO in combination with MDV3100 (Example 22); type: cell-based, human; settings: for Proliferation (% untreated control) in 22RV1 without MDV-3100: RNAiMAX, 3 days
Method: 22RV1 cells were plated at 2,000 cells per well in 5% CSS medium for 48 hours. […] ISIS 549148 was included as a negative control. […] After a treatment period of 3 days, the proliferative capacity of the cancer cells was measured with CellTiter 96® AQueous One Solution Cell Proliferation kit (Promega), following the manufacturer's instructions. Results are presented in Tables 58-62 as percent inhibition of proliferation, relative to non-treated cells.

AR mRNA = assay: Time-course AR mRNA expression in C4-2B cells (8, 24, 48 hours); type: cell-based, human; settings: for Percent expression of AR compared to the control group in 8 hours / Percent expression of AR compared to the control group in 48 hours / Percent expression of AR compared to the control group in 24 hours: C4-2B cells
Method: C4-2B cells were plated at 1,000 cells per well in complete medium. […] After a treatment period of 8 hours, 24 hours, and 48 hours, AR expression was measured with primer probe set hAR-LTS00943.

TMPRSS2 mRNA [2] = assay: TMPRSS2 expression in LNCaP cells (complete, CSS+DHT medium); type: cell-based, human; settings: for Percent inhibition of TMPRSS2 expression in LNCaP cells cultured in CSS + DHT medium: CSS + DHT (1 nM) medium, 48 hrs; for Percent inhibition of TMPRSS2 expression in LNCaP cells cultured in complete medium: 48 hours
Method: Cells were plated at 1,000 cells per well. […] ISIS 549148 was included as a negative control. […] After an incubation period of 48 hours, RNA levels of AR, PSA and TMPRSS2 were measured.
Cells were plated at 2,000 cells per well and cultured in phenol red-free RPMI supplemented with 5% charcoal stripped serum (Gibco) media for 16 hours. […] ISIS 549148 was included as a negative control. […] After an incubation period of 4 hrs, DHT was added to the medium to a final concentration of 1 nM as indicated. RNAs were collected 48 hrs later and levels of AR, PSA and TMPRSS2 were measured. In the absence of DHT, AR expression in LNCaP cells was 95%, PSA expression was 7% and TMPRSS2 expression was 24% compared to the untreated control.

AR V7 variant mRNA = assay: AR V7 variant RNA in VCaP cells; type: cell-based, human; settings: RNAiMax, 48 hrs
Method: Cells were plated at 10,000 cells per well. […] ISIS 549148 was included as a negative control. After an incubation period of 48 hrs, RNA levels of full length AR, the V7 variant, PSA and TMPRSS2 were measured.
A separate set of cells was treated with MDV-3100 at 0.04 μM, 0.2 μM, 1.0 μM, or 5.0 μM. After an incubation period of 48 hrs, RNA levels of full length AR, the V7 variant, PSA and TMPRSS2 were measured. The data is presented in Tables 108 expressed as percent expression of gene levels compared to the untreated control.
Cells were plated at 15,000 cells per well and cultured in CSS media for 16 hours. […] ISIS 549148 was included as a negative control. After 4 hrs, 1 nM DHT was added. […] After an incubation period of 48 hrs, RNA levels of AR, PSA and TMPRSS2 were measured. […]

cleaved PARP = assay: Cleaved PARP western blot in VCaP cells; type: cell-based, human
MDA-MB-453 tumor = assay: Tumor volume in MDA-MB-453 breast cancer orthotopic model; type: in vivo, NSG mice; settings: Study 2, MDA-MB-453 model, NSG mice, 50 mg/kg s.c. 5 days per week for 2 weeks

## TGATTTAATGGTTGCA [ISIS 569236] (cEt/MOE gapmer chemistry, further chemistry not given here) [targets intron 1]
LMR20 cells; CSS + DHT, ASO 0.04 μM
  Percent inhibition of LMR20 cell proliferation: 0%
LMR20 cells; CSS + DHT, ASO 0.20 μM
  Percent inhibition of LMR20 cell proliferation: 10%
LMR20 cells; CSS + DHT, ASO 1.0 μM
  Percent inhibition of LMR20 cell proliferation: 32%
LMR20 cells; CSS + DHT, ASO 5.0 μM
  Percent inhibition of LMR20 cell proliferation: 57%
LMR20 cells; CSS + R1881, ASO 0.04 μM
  Percent inhibition of LMR20 cell proliferation: 0%
LMR20 cells; CSS + R1881, ASO 0.20 μM
  Percent inhibition of LMR20 cell proliferation: 2%
LMR20 cells; CSS + R1881, ASO 1.0 μM
  Percent inhibition of LMR20 cell proliferation: 34%
LMR20 cells; CSS + R1881, ASO 5.0 μM
  Percent inhibition of LMR20 cell proliferation: 61%
LMR20 cells; CSS, ASO 0.04 μM
  Percent inhibition of LMR20 cell proliferation: 0%
LMR20 cells; CSS, ASO 0.20 μM
  Percent inhibition of LMR20 cell proliferation: 10%
LMR20 cells; CSS, ASO 1.0 μM
  Percent inhibition of LMR20 cell proliferation: 0%
LMR20 cells; CSS, ASO 5.0 μM
  Percent inhibition of LMR20 cell proliferation: 12%
LMR20 cells; in the presence of R1881 or DHT, 0.04-5.0 μM
  LMR20 cell proliferation: significantly inhibited MDV3100-resistant prostate cancer cell proliferation in a dose dependent manner more extensively than ISIS 554221
TMPRSS2 mRNA [1]
  TMPRSS2 mRNA levels in LMR20 cells: reduced PSA levels and TMPRSS2 more extensively than the LNA gapmer ISIS 554221 or MDV3100
22RV1 cells; 22RV1 cells
  synergy with MDV3100: synergistic with MDV3100
22RV1 cells; 22RV1 cells, ASO alone at 1.0 μM
  inhibited cell proliferation, ASO alone: 17%
22RV1 cells; 22RV1 cells, ISIS 569236 (1.0 μM as printed) in combination with 1.0 μM MDV3100
  cell proliferation inhibited, combination: 30%
22RV1 cells; ASO dose 0.4 nM + 0.04 μM MDV-3100
  Proliferation (% untreated control) in 22RV1 cells with 0.04 μM MDV-3100: 83 % untreated control
22RV1 cells; ASO dose 0.4 nM + 0.2 μM MDV-3100
  Proliferation (% untreated control) in 22RV1 cells with 0.2 μM MDV-3100: 93 % untreated control
22RV1 cells; ASO dose 0.4 nM + 1.0 μM MDV-3100
  Proliferation (% untreated control) in 22RV1 cells with 1.0 μM MDV-3100: 79 % untreated control
22RV1 cells; ASO dose 0.4 nM + 5.0 μM MDV-3100
  Proliferation (% untreated control) in 22RV1 cells with 5.0 μM MDV-3100: 82 % untreated control
22RV1 cells; ASO dose 0.4 nM
  Proliferation (% untreated control) in 22RV1 without MDV-3100: 97 % untreated control
22RV1 cells; ASO dose 1.34 nM + 0.04 μM MDV-3100
  Proliferation (% untreated control) in 22RV1 cells with 0.04 μM MDV-3100: 70 % untreated control
22RV1 cells; ASO dose 1.34 nM + 0.2 μM MDV-3100
  Proliferation (% untreated control) in 22RV1 cells with 0.2 μM MDV-3100: 77 % untreated control
22RV1 cells; ASO dose 1.34 nM + 1.0 μM MDV-3100
  Proliferation (% untreated control) in 22RV1 cells with 1.0 μM MDV-3100: 70 % untreated control
22RV1 cells; ASO dose 1.34 nM + 5.0 μM MDV-3100
  Proliferation (% untreated control) in 22RV1 cells with 5.0 μM MDV-3100: 72 % untreated control
22RV1 cells; ASO dose 1.34 nM
  Proliferation (% untreated control) in 22RV1 without MDV-3100: 83 % untreated control
22RV1 cells; ASO dose 4.0 nM + 0.04 μM MDV-3100
  Proliferation (% untreated control) in 22RV1 cells with 0.04 μM MDV-3100: 61 % untreated control
22RV1 cells; ASO dose 4.0 nM + 0.2 μM MDV-3100
  Proliferation (% untreated control) in 22RV1 cells with 0.2 μM MDV-3100: 60 % untreated control
22RV1 cells; ASO dose 4.0 nM + 1.0 μM MDV-3100
  Proliferation (% untreated control) in 22RV1 cells with 1.0 μM MDV-3100: 52 % untreated control
22RV1 cells; ASO dose 4.0 nM + 5.0 μM MDV-3100
  Proliferation (% untreated control) in 22RV1 cells with 5.0 μM MDV-3100: 52 % untreated control
22RV1 cells; ASO dose 4.0 nM
  Proliferation (% untreated control) in 22RV1 without MDV-3100: 69 % untreated control
22RV1 cells; ASO dose 13.4 nM + 0.04 μM MDV-3100
  Proliferation (% untreated control) in 22RV1 cells with 0.04 μM MDV-3100: 24 % untreated control
22RV1 cells; ASO dose 13.4 nM + 0.2 μM MDV-3100
  Proliferation (% untreated control) in 22RV1 cells with 0.2 μM MDV-3100: 20 % untreated control
22RV1 cells; ASO dose 13.4 nM + 1.0 μM MDV-3100
  Proliferation (% untreated control) in 22RV1 cells with 1.0 μM MDV-3100: 18 % untreated control
22RV1 cells; ASO dose 13.4 nM + 5.0 μM MDV-3100
  Proliferation (% untreated control) in 22RV1 cells with 5.0 μM MDV-3100: 24 % untreated control
22RV1 cells; ASO dose 13.4 nM
  Proliferation (% untreated control) in 22RV1 without MDV-3100: 37 % untreated control
AR mRNA; 0.04 μM
  Percent expression of AR compared to the control group in 8 hours: 100%
  Percent expression of AR compared to the control group in 48 hours: 80%
AR mRNA; 0.2 μM
  Percent expression of AR compared to the control group in 8 hours: 87%
  Percent expression of AR compared to the control group in 24 hours: 35%
  Percent expression of AR compared to the control group in 48 hours: 19%
AR mRNA; 1 μM
  Percent expression of AR compared to the control group in 8 hours: 84%
  Percent expression of AR compared to the control group in 24 hours: 15%
  Percent expression of AR compared to the control group in 48 hours: 7%
AR mRNA; 5.0 μM
  Percent expression of AR compared to the control group in 8 hours: 58%
  Percent expression of AR compared to the control group in 24 hours: 5%
  Percent expression of AR compared to the control group in 48 hours: 2%
AR mRNA; C4-2B cells, 8, 24 and 48 hours
  AR expression: reduced AR expression in the cells relative to the control set
TMPRSS2 mRNA [2]; 0.04 μM
  Percent inhibition of TMPRSS2 expression in LNCaP cells cultured in CSS + DHT medium: 6%
  Percent inhibition of TMPRSS2 expression in LNCaP cells cultured in complete medium: 0%
TMPRSS2 mRNA [2]; 0.2 μM
  Percent inhibition of TMPRSS2 expression in LNCaP cells cultured in CSS + DHT medium: 8%
  Percent inhibition of TMPRSS2 expression in LNCaP cells cultured in complete medium: 5%
TMPRSS2 mRNA [2]; 1 μM
  Percent inhibition of TMPRSS2 expression in LNCaP cells cultured in CSS + DHT medium: 40%
  Percent inhibition of TMPRSS2 expression in LNCaP cells cultured in complete medium: 40%
TMPRSS2 mRNA [2]; 5.0 μM
  Percent inhibition of TMPRSS2 expression in LNCaP cells cultured in CSS + DHT medium: 50%
  Percent inhibition of TMPRSS2 expression in LNCaP cells cultured in complete medium: 48%
AR V7 variant mRNA; CSS + DHT medium, 1.34 nM
  Percent inhibition of AR V7 variant: 37%
AR V7 variant mRNA; CSS + DHT medium, 4.0 nM
  Percent inhibition of AR V7 variant: 33%
AR V7 variant mRNA; CSS + DHT medium, 13.4 nM
  Percent inhibition of AR V7 variant: 48%
AR V7 variant mRNA; CSS + DHT medium, 40 nM
  Percent inhibition of AR V7 variant: 39%
AR V7 variant mRNA; complete medium, 1.34 nM
  Percent inhibition of AR V7 variant: 0%
AR V7 variant mRNA; complete medium, 4.0 nM
  Percent inhibition of AR V7 variant: 40%
AR V7 variant mRNA; complete medium, 13.4 nM
  Percent inhibition of AR V7 variant: 53%
AR V7 variant mRNA; complete medium, 40 nM
  Percent inhibition of AR V7 variant: 80%
Cleaved PARP
  cleaved PARP levels (western blot): increased in a dose-dependent manner
MDA-MB-453 tumor; Day 0
  Tumor volumes: 134
MDA-MB-453 tumor; Day 8
  Tumor volumes: 283
MDA-MB-453 tumor; Day 13
  Tumor volumes: 260
MDA-MB-453 tumor; Day 20
  Tumor volumes: 230
MDA-MB-453 tumor; Day 23
  Tumor volumes: 264
MDA-MB-453 tumor; Day 27
  Tumor volumes: 329
MDA-MB-453 tumor; Day 29
  Tumor volumes: 323

Source: patent USRE48461E1, “Modulation of androgen receptor expression” (Ionis Pharmaceuticals, Inc., priority 2012, dated 2021)
